Measurements taken from ChEMBL document CHEMBL1138223, “Synthesis of low-hemolytic antimicrobial dehydropeptides based on gramicidin s” (2006).
In brackets after ≈: the same amount, converted by molar mass. Activity calls are given as the source filed them. The calls are words filed in the database; no cut-off is given here. Numbered stars: 1 amine (or outer) side, 2 acyl side, 3 side chain; on linkers, the order of the positions; unused ones are H or OH. Square brackets hold non-standard residues; d marks the D form. Peptide text beside a SMILES is read from it. X1 = O=C(/C(=C/c1cccnc1)N[*:1])[*:2]; X2 = O=C(/C(=C/c1ccccc1)N[*:1])[*:2]; Orn = NCCC[C@H](N)C(=O)O

What was measured:
[1] = system: Staphylococcus aureus; assay: Antimicrobial activity against Staphylococcus aureus 209P by liquid broth method; format: functional
[2] = system: Escherichia coli; assay: Antimicrobial activity against Escherichia coli K12 W3110 by liquid broth method; format: functional
[3] = system: Erythrocyte; assay: Induction of human erythrocyte hemolysis; format: functional, cell-based

SMILES	MIC [1] [µg/mL]	MIC [2] [µg/mL]	Activity [3]
CC(C)C[C@@H]1NC(=O)[C@H](CCCN)NC(=O)[C@H](C(C)C)NC(=O)[C@@H]2CCCN2C(=O)/C(=C/c2cccnc2)NC(=O)[C@H](CC(C)C)NC(=O)[C@H](CCCN)NC(=O)[C@H](C(C)C)NC(=O)[C@@H]2CCCN2C(=O)/C(=C/c2cccnc2)NC1=O (cyclo(L[X1]PV[Orn]L[X1]PV[Orn]))	8 (≈ 7.02 µM)	32 (≈ 28.1 µM)	
CC(C)C[C@@H]1NC(=O)[C@H](CCCN)NC(=O)[C@H](C(C)C)NC(=O)[C@@H]2CCCN2C(=O)/C(=C/c2ccccc2)NC(=O)[C@H](CC(C)C)NC(=O)[C@H](CCCN)NC(=O)[C@H](C(C)C)NC(=O)[C@@H]2CCCN2C(=O)/C(=C/c2cccnc2)NC1=O (cyclo(L[X2]PV[Orn]L[X1]PV[Orn]))	4 (≈ 3.51 µM)	32 (≈ 28.1 µM)	
CC(C)C[C@@H]1NC(=O)[C@H](CCCN)NC(=O)[C@H](C(C)C)NC(=O)[C@@H]2CCCN2C(=O)/C(=C/c2ccccc2)NC(=O)[C@H](CC(C)C)NC(=O)[C@H](CCCN)NC(=O)[C@H](C(C)C)NC(=O)[C@@H]2CCCN2C(=O)/C(=C/c2ccccc2)NC1=O (cyclo(L[X2]PV[Orn]L[X2]PV[Orn]))	4 (≈ 3.52 µM)	32 (≈ 28.1 µM)	
CC(C)C[C@@H]1NC(=O)[C@H](CCCN)NC(=O)[C@H](C(C)C)NC(=O)[C@@H]2CCCN2C(=O)[C@@H](Cc2ccccc2)NC(=O)[C@H](CC(C)C)NC(=O)[C@H](CCCN)NC(=O)[C@H](C(C)C)NC(=O)[C@@H]2CCCN2C(=O)[C@@H](Cc2ccccc2)NC1=O [GRAMICIDIN S] (cyclo(L[dF]PV[Orn]L[dF]PV[Orn]))	4 (≈ 3.5 µM)	16 (≈ 14 µM)	

Continued by falling MIC [1], values first:

MIC [1] [µg/mL]	MIC [2] [µg/mL]	SMILES	Activity [3]
64 (≈ 56 µM)	64 (≈ 56 µM)	CC(C)C[C@@H]1NC(=O)[C@H](CCCN)NC(=O)[C@H](C(C)C)NC(=O)[C@@H]2CCCN2C(=O)[C@@H](Cc2cccnc2)NC(=O)[C@H](CC(C)C)NC(=O)[C@H](CCCN)NC(=O)[C@H](C(C)C)NC(=O)[C@@H]2CCCN2C(=O)[C@@H](Cc2cccnc2)NC1=O	inactive
4 (≈ 3.41 µM)	32 (≈ 27.3 µM)	CC(C)C[C@@H]1NC(=O)[C@H](CCCN)NC(=O)[C@H](C(C)C)NC(=O)[C@@H]2CCCN2C(=O)[C@@H](Cc2ccc(O)cc2)NC(=O)[C@H](CC(C)C)NC(=O)[C@H](CCCN)NC(=O)[C@H](C(C)C)NC(=O)[C@@H]2CCCN2C(=O)[C@@H](Cc2ccc(O)cc2)NC1=O (cyclo(L[dY]PV[Orn]L[dY]PV[Orn]))	
